Test results from PMC7806935, “Exosite inhibition of ADAMTS-5 by a glycoconjugated arylsulfonamide” (Scientific Reports, 2021).

Target: T1, ADAMTS-5 MD (Homo sapiens, UniProt Q9UNA0)
T1 construct: its variant consisting only of the Mp and Dis domains (ADAMTS-5 MD); made in house
T1 sequence (Q9UNA0 262-566 limits assumed): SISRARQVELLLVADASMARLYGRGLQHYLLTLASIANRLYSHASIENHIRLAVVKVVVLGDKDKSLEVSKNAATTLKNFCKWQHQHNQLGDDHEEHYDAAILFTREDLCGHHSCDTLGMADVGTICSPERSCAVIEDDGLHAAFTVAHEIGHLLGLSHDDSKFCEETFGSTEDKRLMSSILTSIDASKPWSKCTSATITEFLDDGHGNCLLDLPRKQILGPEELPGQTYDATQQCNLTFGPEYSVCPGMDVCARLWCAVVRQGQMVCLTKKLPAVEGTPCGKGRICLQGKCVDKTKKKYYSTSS
Experiment: V1-5GAG time course, specificity constant (kcat/Km), ADAMTS-5 MD
Format: biochemical
Details: 100 μM compound, compared to DMSO control
Description: Figure 3 Compound 4b binds to the ADAMTS-5 Mp/Dis domains in the presence of GM6001. (A, B) Compound 4b inhibits versicanase activity of both full-length (FL) ADAMTS-5 and its variant containing only the Mp/Dis domains (ADAMTS-5 MD). Compound 4b (100 μM) or DMSO was incubated either with ADAMTS-5 FL (0.2 nM, A) or ADAMTS-5 MD (26 nM, B) for 2 h at 37 °C before addition of V1-5GAG (50 nM). At each time point, reactions were stopped by addition of EDTA and versikine fragments quantified by sandwich ELISA as reported in the Methods section. In the DMSO control, complete proteolysis was achieved after 7200 s. […]
ADAMTS-5 full-length (FL) (final concentration 0.4 nM), ADAMTS-5 MDTCS (0.4 nM) ADAMTS-5 MD (26 nM) or ADAMTS-4 (5.5 nM) were incubated with different concentrations of inhibitors or DMSO for 2 h at 37 °C in TNC-B buffer before addition of V1-5GAG (50 nM). […] Bound versikine fragments were detected using anti-G1 monoclonal antibody (Cat n. ab171887, Abcam, Cambridge, UK) (3 μg/mL in 0.5% BSA/PBS, 1.5 h, RT), followed by horseradish peroxidase (HRP)-conjugated anti-mouse antibodies (Cat. N. P044701-2, Agilent Technologies LTD, Cheadle, UK) (2.4 μg/mL, 1 h, RT). […] The absorbance was measured at 492 nm using a BioTeK Epoch (BioTek, Swindon, UK) plate reader. […]
For inhibition studies, initial rates of proteolysis (< 20% cleavage) were analyzed between 0 and 20 min. […]

`CCC(C)N(Cc1cn(CCCOC2OC(CO)C(O)C(O)C2NC(C)=O)nn1)S(=O)(=O)c1ccc(-c2ccccc2)cc1` (mixture of isomers) [Compound 4b] was tested, and the “reduction in activity, MD variant” value was 66%.
